Source: publication PMC9834766, “Low-molecular-weight anti-HIV-1 agents targeting HIV-1 capsid proteins” (RSC Advances, 2023)
Like-named read-outs stand apart in the source and are kept apart here.

What was measured:
[1] = test system: HIV-1 (NL4-3 strain); assay: Protection against HIV-1 (NL4-3 strain)-induced cytopathogenicity in MT-4 cells, MTT assay; assay type: cell-based; settings: 50% protection from HIV-1 (NL4-3 strain)-induced cytopathogenicity in MT-4 cells
Description: (§1) The anti-HIV activity of the synthesized compounds was assessed based on their protection against HIV-1 (NL4-3 strain)-induced cytopathogenicity in MT-4 cells using an MTT assay.[29–33] The cytotoxicity of these compounds was determined based on reduction of the viability of MT-4 cells, as determined by an MTT assay. […] MKN-3 (2) was designed by in silico screening in the same way as MKN-1 (1), and in terms of ligand efficacy MKN-3 (2), with a London dG value of −9.555, has a higher binding affinity than MKN-1 (1), with a London dG value of −9.134, for a CA molecule. The anti-HIV activity of MKN-3 (2) however, is remarkably lower than that of MKN-1 (1). The reason for this might be the poor cell membrane permeability of MKN-3 (2), which therefore could not penetrate the cells. In general, the hydrophobicity of compounds is correlated to their cell membrane permeability. […] We investigated the design of derivatives more hydrophobic than MKN-3 (2). For the design of MKN-3 (2) derivatives, the docking model of MKN-3 (2) and a CA protein was constructed, and a site in the MKN-3 (2) molecule, whose relationship with the interaction with a CA protein is unknown, was sought (Fig. 3). […] Consequently, this amino group was modified by alkylation or amidation, and was converted into a methylene group. Six derivatives (17, 18, 19, TKB063 (25), 26 and 27), with octanoyl, 2-propylpentanoyl, 2-phenylacetyl, i-propyl, n-heptyl or benzyl groups, respectively on the secondary nitrogen atom of the homopiperazine ring of MKN-3 (2), were synthesized. A derivative (29), with a methylene group in place of the secondary amine of the homopiperazine ring, was prepared. […] It was assumed that the anti-HIV activity of these MKN-3 (2) derivatives was increased as a result of their improved hydrophobicity and cell membrane permeability. If the hydrophobicity of such derivatives is higher (log P > 2), the cytotoxicity is higher (CC50 < 10 μM). […] Thus, TKB063 (25) can be seen to have some advantages.
For virus preparation, 293T/17 cells (Invitrogen) maintained in Dulbecco's modified Eagle medium (DMEM) containing 10% FBS, in a T-75 flask were transfected with 10 μg of the pNL4-3 construct by the calcium phosphate method. The supernatant was collected 48 h after transfection, passed through a 0.45 μm filter, and stored at −80 °C as a stock virus.
(§2) The inhibitory activity of test compounds against X4-HIV-1 (NL4-3 strain)-induced cytopathogenicity in MT-4 cells,[83] which are maintained in RPMI-1640 containing 10% FBS, was assessed by an MTT assay. Various concentrations of test compound solutions were added to HIV-1-infected MT-4 cells at multiplicity of infection (MOI) of 0.001, and placed in wells of a 96-well microplate. The test compounds and the reference compounds, e.g. AZT, were diluted by factors of two or five, respectively. After 5 days' incubation at 37 °C in a CO2 incubator, the number of viable cells was determined by the MTT assay. Cytotoxicities of the test compounds were determined based on reduction of the viability of MT-4 cells measured in the MTT assay. A reverse transcriptase inhibitor, AZT, was purchased from Sigma Aldrich and employed as a positive control compound with anti-HIV activity.

[2] = test system: HIV; settings: cited from earlier work
[3] = Cytotoxicity: reduction of the viability of MT-4 cells, MTT assay; assay type: cell-based; settings: human
Description: as §1, §2

[4] = test system: MT-4 cells; assay: as above; assay type: cell-based; settings: Table 3; 50% reduction of the viability of MT-4 cells
Description: as §1, §2

[5] = Human immunodeficiency virus 1, NL43, MT4, Table 2
[6] = Table 2, 50% reduction of the viability of MT-4 cells, read-out: CC50
[7] = Human immunodeficiency virus 1, NL43, MT4, Table 3
[8] = Human immunodeficiency virus 1, NL43, MT4, Table 4
[9] = Table 4, 50% reduction of the viability of MT-4 cells, read-out: CC50

## Cc1cn([C@H]2C[C@H](N=[N+]=[N-])[C@@H](CO)O2)c(=O)[nH]c1=O [AZT, reference compound]
[1]; Table 2
  EC50: 0.021 µM
[1]; Table 3
  EC50: 0.025 µM
[1]; Table 4
  EC50: 0.04 µM

## C[C@H]1CO[C@@H]2Cn3cc(C(=O)NCc4ccc(F)cc4F)c(=O)c(O)c3C(=O)N12 [Cabotegravir]
[2]; Integrase inhibitor, ref [70]
  IC50/EC50: 0.00025 µM

## CCCCCCCC(=O)N1CCCN([C@H](CCSC)C(=O)N2CCNCC2c2c[nH]c3ccccc23)CC1 (stereo partly drawn) [Compound 17]
[1]; [5]
  EC50: 6 µM
[3]; [6]
  CC50 at 5 days: 8.8 µM

## CCCC(CCC)C(=O)N1CCCN([C@H](CCSC)C(=O)N2CCNCC2c2c[nH]c3ccccc23)CC1 (stereo partly drawn) [Compound 18]
[1]; [5]
  EC50: > 9.1 µM
[3]; [6]
  CC50 at 5 days: 9.1 µM

## CSCC[C@H](C(=O)N1CCNCC1c1c[nH]c2ccccc12)N1CCCN(C(=O)Cc2ccccc2)CC1 (stereo partly drawn) [Compound 19]
[1]; [5]
  EC50: 15 µM
[3]
  CC50 at 5 days: 33 µM

## CCCCCCCN1CCCN([C@H](CCSC)C(=O)N2CCNCC2c2c[nH]c3ccccc23)CC1 (stereo partly drawn) [Compound 26]
[1]; [5]
  EC50: 2.6 µM
[3]; [6]
  CC50 at 5 days: 4.4 µM

## CSCC[C@H](C(=O)N1CCNCC1c1c[nH]c2ccccc12)N1CCCN(Cc2ccccc2)CC1 (stereo partly drawn) [Compound 27]
[1]; [5]
  EC50: 2.4 µM
[3]; [6]
  CC50 at 5 days: 9 µM

## CSCC[C@H](C(=O)N1CCNCC1c1c[nH]c2ccccc12)N1CCCCCC1 (stereo partly drawn) [Compound 29]
[1]; [5]
  EC50: 10 µM
[3]; [6]
  CC50 at 5 days: 32 µM

## COc1cnc(-n2cnc(C)n2)c2c1c(C(=O)C(=O)N1CCN(C(=O)c3ccccc3)CC1)cn2COP(=O)(O)O [Fostemsavir]
[2]; Entry inhibitor, ref [67]
  IC50/EC50: 0.0007 µM

## C=C(C)[C@@H]1CC[C@]2(NCCN3CCS(=O)(=O)CC3)CC[C@]3(C)[C@H](CC[C@@H]4[C@@]5(C)CC=C(C6=CC[C@@](CF)(C(=O)O)CC6)C(C)(C)[C@@H]5CC[C@]43C)[C@@H]12 [GSK3640254]
[2]; Maturation inhibitor, ref [69]
  IC90/EC90: (33 nM)

## CC(C)(C#Cc1ccc(-c2ccc(Cl)c3c(NS(C)(=O)=O)nn(CC(F)(F)F)c23)c([C@H](Cc2cc(F)cc(F)c2)NC(=O)Cn2nc(C(F)(F)F)c3c2C(F)(F)[C@@H]2C[C@H]32)n1)S(C)(=O)=O [Lenacapavir]
[2]; Capsid inhibitor, ref [71]
  IC50/EC50: 0.0001 µM

## CSCC[C@H](C)OC(=O)[C@@H](N)c1ccccc1-c1c[nH]c2ccccc12 [MKN-1 (1), reference compound]
[1]; [5]
  EC50: 2.2 µM
[1]; [7]
  EC50: 2.3 µM
[3]; [6]
  CC50 at 5 days: 15 µM

## CSCCC(C(=O)N1CCNCC1c1c[nH]c2ccccc12)N1CCCNCC1 (stereo not drawn) [MKN-3 (2)]
[1]; [5]
  EC50: 42 µM
[1]; [7]
  EC50: > 50 µM
[3]; [6]
  CC50 at 5 days: > 50 µM

## CSCC[C@H](C(=O)N1CCNCC1c1c[nH]c2ccccc12)N1CCCN(C(C)C)CC1 (stereo partly drawn) [TKB063 (25)]
[1]; [5]
  EC50: 4.5 µM
[1]; [7]
  EC50: 4.8 µM
[1]; [8]
  EC50: 9.5 µM
[3]; [6]
  CC50 at 5 days: > 50 µM

## CSCCC(C(=O)N1CCNCC1c1c[nH]c2ccccc12)N1CCCN(C(C)C)CC1 (stereo not drawn) [TKB063A (25A)]
[1]; [7]
  EC50: 5 µM
[3]; Table 3, 50% reduction of the viability of MT-4 cells, read-out: CC50
  CC50 at 5 days: > 50 µM

## CSCCC(C(=O)N1CCNCC1c1c[nH]c2ccccc12)N1CCCN(C(C)C)CC1 (stereo not drawn) [TKB063B (25B)]
[1]; Table 3
  EC50: 7.4 µM
[4]
  CC50: > 50 µM

## CCN1CCCN([C@H](CCSC)C(=O)N2CCNCC2c2c[nH]c3ccccc23)CC1 (stereo partly drawn) [TON01 (36)]
[1]; [8]
  EC50: 20 µM
[3]; [9]
  CC50 at 5 days: > 50 µM

## CCCN1CCCN([C@H](CCSC)C(=O)N2CCNCC2c2c[nH]c3ccccc23)CC1 (stereo partly drawn) [TON02 (37)]
[1]; [8]
  EC50: 8 µM
[3]; [9]
  CC50 at 5 days: > 50 µM

## CCC(C)N1CCCN([C@H](CCSC)C(=O)N2CCNCC2c2c[nH]c3ccccc23)CC1 (stereo partly drawn) [TON03 (38)]
[1]; [8]
  EC50: 6.3 µM
[3]; [9]
  CC50 at 5 days: > 50 µM

## Enfuvirtide (T-20): Peptide, fusion inhibitor
[2]; Fusion inhibitor, ref [66]
  IC50/EC50: 0.003 µM

## Ibalizumab: Antibody, CD4 binding inhibitor
[2]; CD4 binding inhibitor, ref [68]
  IC50/EC50: 0.00029 µM

## Maraviroc
[2]; CCR5 antagonist, ref [65]
  IC90/EC90: (1.0 nM)
